Experiment in all cases: DTP human tumour cell line panel, 48 h
Experiment [1] deals with HL-60(TB) leukemia.
Experiment [2] deals with HCC-2998 colon.
The subject of experiment [3] is EKVX NSCLC.
Experiment [4] deals with OVCAR-4 ovarian.
Experiment [5] concerns UO-31 renal.
Experiment [6] relates to OVCAR-8 ovarian.
Experiment [7] relates to TK-10 renal.
For experiment [8], the system named is RXF 393 renal.
The test system of experiment [9] is SF-539 CNS.
The test system of experiment [10] is DU-145 prostate.

Where “and” joins values, the source holds several entries; their conditions need not be identical. Equal values may be shown once.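 In this assay, cells in 96-well plates receive the compound at five concentrations for 48 hours. Endpoints are linearly interpolated between the surrounding concentrations. Abbreviation: GI50, concentration required for 50% inhibition of growth. The concentration for full growth arrest is given as TGI.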 A value given as a limit tells only on which side of the number the result lay.

The results in this text go back to PubChem BioAssay (NCI).

What is called GI50 is the concentration giving 50% growth inhibition. The term TGI denotes the concentration at which net growth stops. Low readings indicate greater sensitivity of the cells, high ones lower sensitivity of the cells.

As to `N#Cc1c(-c2ccccc2)nc(SCC2CO2)nc1N1CCOCC1` (stereo not given), the GI50 in [1] was 8.88 µM; in experiment [2], 0.253 µM; in experiment [3] it was 4.73 µM; in experiment [4], 52.7 µM; in [5], 5.61 µM; in experiment [6] it was 35.9 µM. The GI50 was 4.88 µM in experiment [7], 13 µM in experiment [8], 10.6 µM in [9] and 14.2 µM in experiment [10]. The TGI in experiment [1] was > 100 µM; in experiment [2] it was 18.2 µM; in experiment [3] it was > 78.5 µM; in [4] it was > 100 µM; in experiment [5], > 100 µM; in experiment [6], > 100 µM. Also, the TGI was 99 µM in experiment [7], > 100 µM in [8], > 95.4 µM in experiment [9] and > 100 µM in [10].

As for `CN(C)CCOc1ccc(-c2nc(-c3ccc4c(c3)CC/C4=N\O)c(-c3ccncc3)[nH]2)cc1`, the GI50 is 2.83 µM and 2.45 µM in experiment [1]; 4.74 µM and 8.01 µM in experiment [2]; 4.7 µM and 9 µM in [3]; 4.72 µM and 6.69 µM in experiment [4]; 5.61 µM and 18.8 µM in experiment [5]; 4.84 µM and 3.2 µM in experiment [6]. In addition, the GI50 is 5.66 µM and 5.27 µM in experiment [7]; 4.37 µM and 4.3 µM in [8]; 4.74 µM and 4.07 µM in experiment [9]; 4.11 µM and 9.02 µM in [10]. Also, the TGI in experiment [1] was 7.44 µM and 14.5 µM; in experiment [2], 8.89 µM and > 27.8 µM; in [3], 11 µM and 38.4 µM; in experiment [4], 9.74 µM and 37.8 µM; in experiment [5], 10 µM and 45.6 µM; in [6] it was 10.1 µM and 8.96 µM. Also, the TGI in experiment [7] was 10.1 µM and 10.4 µM; in experiment [8], 9.58 µM and 8.17 µM; in experiment [9], 9.3 µM and 7.77 µM; in experiment [10] it was 7.82 µM and 17.4 µM.

Turning to `COc1ccc2[nH]c(=O)c3c4ccccc4cn3c2c1`, the GI50 in experiment [1] is 0.186 µM; in experiment [2], 0.332 µM; in experiment [3], 0.878 µM; in [4], 0.532 µM; in [5], 0.689 µM; in experiment [6] it was 1.09 µM. Besides, the GI50 in experiment [7] is 1.28 µM; in [8], 0.312 µM; in experiment [9], 0.657 µM; in [10] it was 0.604 µM. The TGI came out at 0.548 µM in experiment [1]; 0.807 µM in [2]; 12.4 µM in [3]; 2.78 µM in experiment [4]; 4.73 µM in experiment [5]; 3.29 µM in [6]. Also, the TGI in experiment [7] was found to be 5.02 µM; in experiment [8], 1.09 µM; in experiment [9], 2.53 µM; in experiment [10] it was 3.63 µM.

For the compound `Cc1cc2nc(C(C)C(=O)c3ccc(Cl)cc3)c(=O)[nH]c2cc1C` (stereo not given), the TGI in [1] was > 100 µM; in [2], 33.1 µM; in [3], 64.3 µM; in experiment [4], > 100 µM; in experiment [5], > 100 µM; in experiment [6], > 100 µM. Moreover, the TGI in experiment [7] was 75.2 µM; in experiment [8], > 100 µM; in [9], 93.1 µM; in [10], > 100 µM.

`FC(F)(F)Oc1cccc(-c2cnc3ccc(-c4ccncc4)nn23)c1`: the GI50 in [1] was 1.82 µM; in experiment [2], 4.47 µM; in [3] it was 1.39 µM; in experiment [4], 1.4 µM; in [5], 0.708 µM; in experiment [6], 1.47 µM. For the same compound, the GI50 was 1.14 µM in experiment [7], 0.398 µM in experiment [8], 1.13 µM in [9] and 1.6 µM in [10]. Further, the TGI is 4.29 µM in experiment [1]; > 100 µM in experiment [2]; > 100 µM in experiment [3]; 11.3 µM in experiment [4]; 4.77 µM in experiment [5]; > 100 µM in [6]. Besides, the TGI in experiment [7] was 9.76 µM; in [8] it was 2.41 µM; in [9], 7.4 µM; in [10] it was > 100 µM.

Consider `CC(=O)NCCc1c2c(c3nccc4c3c1Nc1ccccc1-4)OCS2`, for which the GI50 was 2.97 µM in experiment [1]; 45.8 µM in experiment [2]; 2.05 µM in experiment [3]; 1.92 µM in experiment [4]; 1.05 µM in [5]; 2.09 µM in [6]. Moreover, the GI50 in [7] is 5.56 µM; in [8] it was 3.02 µM; in [9], 6.63 µM; in [10], 1.06 µM. Also, the concentration for total growth inhibition (TGI) was 14.3 µM in experiment [1]; > 100 µM in [2]; 16.1 µM in experiment [3]; 6.02 µM in experiment [4]; 6.37 µM in experiment [5]; > 33.1 µM in experiment [6]. Also, the TGI was determined as 18.9 µM in experiment [7], 13.5 µM in experiment [8], 25.1 µM in [9] and 2.48 µM in [10].

For the compound `CC12CCC3C(CCC4Cc5[nH]c6ccccc6c5CC43C)C1CCC2O` (stereo not given), the GI50 is 0.381 µM in [1]; 0.633 µM in experiment [2]; 3.69 µM in experiment [3]; 1.35 µM in [4]; 4.37 µM in [5]; 4.1 µM in experiment [6]. Besides, the GI50 in [7] is 2.73 µM; in experiment [8], 0.738 µM; in experiment [9], 1.2 µM; in experiment [10] it was 1.69 µM. The total growth inhibition concentration (TGI) was 2.33 µM in [1]; 2.54 µM in [2]; > 100 µM in experiment [3]; > 100 µM in experiment [4]; > 100 µM in experiment [5]; > 100 µM in [6]. For the same compound, the TGI in experiment [7] was > 100 µM; in [8], 3.31 µM; in experiment [9] it was 3.77 µM; in experiment [10], 5.5 µM.

As to `COc1c(C=O)c2c(c(OC)c1OC)-c1ccc(OC)c(=O)cc1[C@@H](NC(C)=O)CC2`, the TGI in [1] was 0.0717 µM; in experiment [2] it was 34.4 µM; in experiment [3], > 100 µM; in [4] it was > 100 µM; in experiment [5] it was > 100 µM; in [6], > 14.4 µM. Besides, the TGI in [7] was > 100 µM; in [8] it was > 56.3 µM; in [9], 0.0644 µM; in [10], > 100 µM.

For `CN(Cc1cnc2nc(N)nc(N)c2n1)c1ccc(C(=O)NC(CCC(=O)O)C(=O)O)cc1C(F)(F)F` (stereo not given), the TGI in experiment [1] was > 100 µM; in experiment [2] it was > 100 µM; in experiment [3], > 100 µM; in experiment [4] it was > 100 µM; in experiment [5], > 100 µM; in experiment [6], > 66.7 µM. Further, the TGI in experiment [7], in [8], in experiment [9] and in experiment [10] was > 100 µM in each case.

Take `NCCNc1c2c(c(NCCN)c3c(CO)c[nH]c13)C(=O)c1ccccc1C2=O`: the GI50 in [1] was 43.4 µM; in experiment [2], 7.14 µM; in [3] it was 19.7 µM; in experiment [4], 38.3 µM; in experiment [5], 80.8 µM; in [6], 5.26 µM. The GI50 in experiment [7] is 20.7 µM; in experiment [8], 5.84 µM; in experiment [9] it was 3.89 µM; in experiment [10] it was 12 µM. Moreover, the TGI in experiment [1] is > 100 µM; in [2], 52.3 µM; in experiment [3] it was 56.2 µM; in experiment [4], > 100 µM; in [5] it was > 100 µM; in [6], 47.2 µM. Besides, the TGI in [7] was 75.1 µM; in [8], 34.7 µM; in [9], 39.3 µM; in experiment [10], > 100 µM.

For `CCOC(=O)c1ccc2[nH]c(-c3ccc(S(=O)(=O)F)cc3)cc(=O)c2c1`, the TGI in experiment [1] was > 100 µM; in [2], 40 µM; in [3] it was > 100 µM; in experiment [4], > 100 µM; in [5], > 100 µM; in experiment [6], > 100 µM. Also, the total growth inhibition concentration (TGI) in experiment [7], in [8], in [9] and in experiment [10] was > 100 µM throughout.

Regarding `O=C[C@@H](CO)O[C@H](C=O)c1c[nH]c(=O)[nH]c1=O`, the total growth inhibition concentration (TGI) in experiment [1] was found to be 376 µM; in [2], 338 µM; in [3], 329 µM; in experiment [4] it was 375 µM; in experiment [5] it was 287 µM; in [6], 352 µM. In addition, the TGI was 355 µM in experiment [7], 163 µM in experiment [8], 428 µM in experiment [9] and 437 µM in experiment [10].

Take `CCc1nc(N)nc(N)c1-c1ccc(NCCN)c([N+](=O)[O-])c1`: the TGI in experiment [1] is > 100 µM; in experiment [2], 50.7 µM; in experiment [3] it was > 100 µM; in [4] it was > 100 µM; in experiment [5] it was > 100 µM; in [6] it was > 100 µM. For the same compound, the TGI in experiment [7], in [8], in experiment [9] and in [10] was > 100 µM throughout.

Regarding `COc1ccc(C2CC(c3cc(OC)c(OC)c(OC)c3)=NO2)cc1OCCCCOc1cc2c(cc1OC)C(=O)N1CCC[C@H]1C=N2` (stereo not given in full), the GI50 in [1] was 1.9 µM; in experiment [2], 1.58 µM; in [3], 3.68 µM; in experiment [4], 2.07 µM; in [5], 2.09 µM; in [6], 2.55 µM. Moreover, the GI50 in [7] was 3.51 µM; in experiment [8] it was 1.39 µM; in [9], 1.8 µM; in experiment [10] it was 2.48 µM. Moreover, the TGI came to 4.54 µM in [1]; 3.04 µM in experiment [2]; 25 µM in experiment [3]; 5.04 µM in [4]; 6.26 µM in [5]; 7.74 µM in experiment [6]. The TGI in experiment [7] was determined as 9.41 µM; in [8], 2.72 µM; in experiment [9], 3.46 µM; in [10] it was 7.43 µM.

In the case of `Cc1ccc([N+](=O)[O-])cc1NC(=O)Nc1cccc(F)c1`, the GI50 is 4.02 µM in experiment [1]; 4.02 µM in [2]; 3.68 µM in experiment [3]; 3.96 µM in experiment [4]; 3.36 µM in [5]; 4.24 µM in experiment [6]. The GI50 was 4.19 µM in experiment [7], 18.4 µM in [8], 7.2 µM in [9] and 4.54 µM in [10]. The TGI in experiment [1] was > 100 µM; in experiment [2] it was > 100 µM; in experiment [3], > 100 µM; in [4] it was 51.9 µM; in experiment [5], 17.6 µM; in experiment [6] it was > 100 µM. Moreover, the TGI in experiment [7] was 17.7 µM; in experiment [8], 61.2 µM; in experiment [9], 33.6 µM; in [10], 28.4 µM.
